In patent US20230339915A1 (Vertex Pharmaceuticals Incorporated, priority 2020, published 2023) one finds EC50 and IC50 data, which are given here for 48 molecules.

Each structure is given as a SMILES string.

In assay [1] the target is NL20 human bronchial epithelial cells expressing human Z-AAT (Homo sapiens (Human), UniProt P01009, E366K). The assay is described as follows: AAT Function Assay (MSD Assay NL20-SI Cell Line). The conditions noted are these: functionally active AAT (AAT-hNE complex, MSD) in supernatant of NL20 cells expressing human Z-AAT; read-out: NL20 Functional EC50. The class given is cell-based. In outline:
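Secreted active Z-AAT was measured by MSD electrochemiluminescence: supernatants (45-fold total dilution) were incubated with human neutrophil elastase to form AAT–elastase complexes, captured by goat anti-AAT and detected with labelled anti-elastase. Cells were doxycycline-induced (0.1 μM) NL20 bronchial cells treated with compound overnight; M-AAT standard curve.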

In assay [2] the target is purified Z-AAT protein from human plasma (Homo sapiens (Human), UniProt P01009, E366K). The assay is described as follows: Biochemical Assay (Z-AAT Elastase Activity Assay). The conditions noted are these: purified Z-AAT pre-incubated with compound 1 hour, then human neutrophil elastase and fluorescent substrate. In outline:
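Purified plasma Z-AAT (20 nM) preincubated with compounds 1 h at room temperature, then 3 nM human neutrophil elastase added in PBS + 0.01% BRIJ35 for 30 min to form suicide complex. Residual elastase activity read immediately by fluorescence after adding 300 μM MeOSuc-AAPV-AMC substrate solution.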

NL20 human bronchial epithelial cells expressing human Z-AAT, sequence (P01009 25-418 E366K limits assumed): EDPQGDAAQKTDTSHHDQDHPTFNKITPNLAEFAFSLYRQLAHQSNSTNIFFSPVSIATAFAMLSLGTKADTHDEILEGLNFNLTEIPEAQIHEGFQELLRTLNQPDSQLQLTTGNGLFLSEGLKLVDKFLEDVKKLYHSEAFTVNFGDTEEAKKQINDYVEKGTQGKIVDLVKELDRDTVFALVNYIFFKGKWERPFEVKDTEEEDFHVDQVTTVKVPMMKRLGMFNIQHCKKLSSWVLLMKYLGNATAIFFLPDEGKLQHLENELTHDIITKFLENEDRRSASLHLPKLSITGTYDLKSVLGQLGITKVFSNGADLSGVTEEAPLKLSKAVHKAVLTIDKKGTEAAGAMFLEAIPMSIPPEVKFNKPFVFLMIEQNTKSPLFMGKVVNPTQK
purified Z-AAT protein from human plasma, sequence (P01009 25-418 E366K limits assumed): as above

Take `Cc1cc(-n2c(C(C)C)c(C3CCOC(C(=O)O)C3)c3cc(O)ccc32)ccc1F` (stereo not drawn) [Compound 65]: the concentration for a half-maximal effect (EC50) (usually the concentration giving half of the maximal effect) in assay [1] was above 2 µM. The IC50 (usually the concentration that gives 50% inhibition) in assay [2] was above 30 µM.
The matching figures for `CO[C@]1(C(=O)O)C[C@H](c2c(C(C)C)n(-c3ccc(F)c(C)c3)c3ccc(O)cc32)C1` [Compound 66]: 0.5 to 2 µM and above 30 µM.
Taken in the same sequence, the figures for `CO[C@]1(C(=O)O)C[C@@H](c2c(C(C)C)n(-c3ccc(F)c(C)c3)c3ccc(O)cc32)C1` [Compound 67] were above 2 µM and above 30 µM.
Taken in the same sequence, the figures for `Cc1cc(-n2c(C(C)C)c([C@H]3C[C@H](C(=O)O)C3)c3cc(O)c(F)cc32)ccc1F` [Compound 68] were 0.5 to 2 µM and above 5 µM.
`Cc1cc(-n2c(C(C)C)c([C@H]3C[C@@H](C(=O)O)C3)c3cc(O)c(F)cc32)ccc1F` [Compound 69]: the 50% effective concentration (EC50) in assay [1] was above 2 µM. Moreover, in assay [2], the 50% inhibitory concentration (IC50) is above 5 µM.
Taken in the same sequence, the figures for `CC(C)c1c(CCC(C)(C)C(=O)O)c2cc(O)ccc2n1-c1ccc(F)cc1` [Compound 70] were 0.5 to 2 µM and above 30 µM.
With `CC(C)c1c(CC2(C(=O)O)CC2)c2cc(O)ccc2n1-c1ccc(F)cc1` [Compound 71], the EC50 in assay [1] was 0.5 to 2 µM. In addition, in assay [2], the half-maximal inhibitory concentration (IC50) is above 5 µM.
Taken in the same sequence, the figures for `COCC(C)(C)c1c(C2CC(C(=O)O)C2)c2cc(O)ccc2n1-c1ccc(F)c(C)c1` (stereo not drawn) [Compound 72] were above 2 µM and above 30 µM.
Taken in the same sequence, the figures for `COCC(C)(C)c1c([C@H]2C[C@H](C(=O)O)C2)c2cc(O)ccc2n1-c1ccc(F)c(C)c1` [Compound 73] were above 2 µM and above 30 µM.
As to `CC(C)c1c([C@H]2C[C@](C)(C(=O)O)C2)c2cc(O)ccc2n1-c1ccc(F)c(Cl)c1` [Compound 75], in assay [1], the EC50 is 0.5 to 2 µM. Further, the IC50 in assay [2] is above 5 µM.
Taken in the same sequence, the figures for `CC(C)c1c([C@H]2C[C@@](C)(C(=O)O)C2)c2cc(O)ccc2n1-c1ccc(F)c(Cl)c1` [Compound 76] were above 2 µM and above 30 µM.
Turning to `CC(C)c1c([C@H]2C[C@H](C(=O)O)C2)c2cc(O)ccc2n1-c1ccc(F)c(Cl)c1` [Compound 77], the concentration for a half-maximal effect (EC50) in assay [1] lay in the range of 0.5 to 2 µM. For the same molecule, in assay [2], the concentration for half-maximal inhibition (IC50) was above 5 µM.
In the case of `CC(C)c1c([C@H]2C[C@@H](C(=O)O)C2)c2cc(O)ccc2n1-c1ccc(F)c(Cl)c1` [Compound 78], the EC50 in assay [1] is above 2 µM. For the same molecule, in assay [2], the IC50 was above 5 µM.
The matching figures for `CC(C)c1c(C2CC3(CC(C(=O)O)C3)C2)c2cc(O)ccc2n1-c1ccc(F)cc1` (stereo not drawn) [Compound 80]: 0.5 to 2 µM and below 2 µM.
The matching figures for `COCC(C)(C)c1c(CC2(C(=O)O)CC2)c2cc(O)ccc2n1-c1ccc(F)c(C)c1` [Compound 81]: 0.5 to 2 µM and above 30 µM.
Taken in the same sequence, the figures for `Cc1cc(-n2c([C@@H]3CCOC3)c([C@H]3C[C@H](C(=O)O)C3)c3cc(O)ccc32)ccc1F` [Compound 84] were above 2 µM and above 30 µM.
For `Cc1cc(-n2c([C@@H]3CCOC3)c([C@H]3C[C@@H](C(=O)O)C3)c3cc(O)ccc32)ccc1F` [Compound 85], in assay [1], the EC50 is above 2 µM. Further, in assay [2], the half-inhibitory concentration (IC50) is above 30 µM.
`Cc1cc(-n2c([C@H]3CCOC3)c([C@H]3C[C@H](C(=O)O)C3)c3cc(O)ccc32)ccc1F` [Compound 86]: the EC50 in assay [1] was above 2 µM. Besides, the concentration for half-maximal inhibition (IC50) in assay [2] is above 30 µM.
The matching figures for `Cc1cc(-n2c([C@H]3CCOC3)c([C@H]3C[C@@H](C(=O)O)C3)c3cc(O)ccc32)ccc1F` [Compound 87]: above 2 µM and above 30 µM.
Consider `Cc1cc(-n2c(C(C)C)c(C3COC(C(=O)O)C3)c3cc(O)ccc32)ccc1F` (stereo not drawn) [Compound 88], for which the EC50 in assay [1] is above 2 µM. Also, in assay [2], the IC50 was above 30 µM.
The matching figures for `Cc1cc(-n2c(C(C)C)c([C@H]3C[C@H](C(=O)O)C3)c3c(F)c(O)ccc32)ccc1F` [Compound 89]: 0.5 to 2 µM and 2 to 5 µM.
The matching figures for `Cc1cc(-n2c(C(C)C)c([C@H]3C[C@@H](C(=O)O)C3)c3c(F)c(O)ccc32)ccc1F` [Compound 90]: 0.5 to 2 µM and above 5 µM.
As to `CC(C)c1c([C@H]2C[C@@H](C(=O)O)C2)c2cc(O)ccc2n1-c1ccc(F)cc1` [Compound 91], the EC50 in assay [1] is above 2 µM. The IC50 in assay [2] was above 30 µM.
Consider `CC(C)c1c(C(C)CCC(=O)O)c2cc(O)ccc2n1-c1ccc(F)cc1` (stereo not drawn) [Compound 92], for which the EC50 in assay [1] is above 2 µM. In addition, in assay [2], the 50% inhibitory concentration (IC50) was above 5 µM.
The matching figures for `Cc1cc(-n2c(C3CC3)c([C@H]3C[C@H](C(=O)O)C3)c3cc(O)ccc32)ccc1F` [Compound 93]: above 2 µM and above 30 µM.
The matching figures for `Cc1cc(-n2c(C(C)C)c([C@H]3C[C@@](C)(C(=O)O)C3)c3cc(O)ccc32)ccc1F` [Compound 94]: above 2 µM and above 30 µM.
Taken in the same sequence, the figures for `Cc1cc(-n2c(C(C)C)c([C@H]3C[C@](C)(C(=O)O)C3)c3cc(O)ccc32)ccc1F` [Compound 95] were below 0.5 µM and above 5 µM.
In the case of `Cc1cc(-n2c(C(C)C)c(CCCC(=O)O)c3cc(O)ccc32)ccc1F` [Compound 96], in assay [1], the 50% effective concentration (EC50) lay in the range of 0.5 to 2 µM. In assay [2], the IC50 is above 30 µM.
Regarding `Cc1cc(-n2c(C(C)C)c(C3CC4(CC(C(=O)O)C4)C3)c3cc(O)ccc32)ccc1F` (stereo not drawn) [Compound 97], the EC50 in assay [1] was below 0.5 µM. Also, in assay [2], the IC50 fell in the range of 2 to 5 µM.
As to `Cc1cc(-n2c(C(C)C)c([C@H]3C[C@@H](C(=O)O)C3)c3cc(O)ccc32)ccc1F` [Compound 98], in assay [1], the EC50 is above 2 µM. Besides, the IC50 in assay [2] is above 30 µM.
`Cc1cc(-n2c(C3CCOCC3)c([C@H]3C[C@](C)(C(=O)O)C3)c3cc(O)ccc32)ccc1F` [Compound 99]: in assay [1], the EC50 was 0.5 to 2 µM. The half-maximal inhibitory concentration (IC50) in assay [2] is above 5 µM.
The matching figures for `Cc1cc(-n2c(C3CCOCC3)c([C@H]3C[C@@](C)(C(=O)O)C3)c3cc(O)ccc32)ccc1F` [Compound 100]: above 2 µM and above 30 µM.
For `Cc1cc(-n2c(C3CCOCC3)c(CC3(C(=O)O)CC3)c3cc(O)ccc32)ccc1F` [Compound 103], the EC50 in assay [1] is above 2 µM. In assay [2], the IC50 is above 30 µM.
Turning to `Cc1cc(-n2c(C(C)C)c(CC3(C(=O)O)CC3)c3cc(O)ccc32)ccc1F` [Compound 104], in assay [1], the EC50 lay within 0.5 to 2 µM. Further, the IC50 in assay [2] was above 5 µM.
Regarding `COC[C@]1(C(=O)O)C[C@H](c2c(C3CCOCC3)n(-c3ccc(F)c(C)c3)c3ccc(O)cc32)C1` [Compound 106, trans-3-(1-(4-fluoro-3-methylphenyl)-5-hydroxy-2-(tetrahydro-2H-pyran-4-yl)-1H-indol-3-yl)-1-(methoxymethyl)cyclobutane-1-carboxylic acid], the half-maximal effective concentration (EC50) in assay [1] was above 2 µM. Further, in assay [2], the 50% inhibitory concentration (IC50) is above 30 µM.
As to `COC[C@]1(C(=O)O)C[C@@H](c2c(C3CCOCC3)n(-c3ccc(F)c(C)c3)c3ccc(O)cc32)C1` [Compound 107, cis-3-(1-(4-fluoro-3-methylphenyl)-5-hydroxy-2-(tetrahydro-2H-pyran-4-yl)-1H-indol-3-yl)-1-(methoxymethyl)cyclobutane-1-carboxylic acid], the EC50 in assay [1] is above 2 µM. In addition, the IC50 in assay [2] is above 30 µM.
Consider `Cc1cc(-n2c(C3CCOCC3)c([C@H]3C[C@](CF)(C(=O)O)C3)c3cc(O)ccc32)ccc1F` [Compound 108], for which, in assay [1], the EC50 fell in the range of 0.5 to 2 µM. In addition, the IC50 in assay [2] was above 5 µM.
The matching figures for `Cc1cc(-n2c(C3CCOCC3)c([C@H]3C[C@@](CO)(C(=O)O)C3)c3cc(O)ccc32)ccc1F` [Compound 109]: above 2 µM and above 30 µM.
Taken in the same sequence, the figures for `O=C(O)[C@]1(CF)C[C@@H](c2c(C3CCOCC3)n(-c3ccc(F)c(Cl)c3)c3ccc(O)cc32)C1` [Compound 110] were above 2 µM and above 30 µM.
The matching figures for `O=C(O)[C@]1(CF)C[C@H](c2c(C3CCOCC3)n(-c3ccc(F)c(Cl)c3)c3ccc(O)cc32)C1` [Compound 111]: above 2 µM and above 30 µM.
`O=C(O)[C@H]1C[C@H](c2c(C3CCOCC3)n(-c3cc(F)cc(F)c3)c3ccc(O)cc32)C1` [Compound 112]: the EC50 in assay [1] is above 2 µM. Besides, the IC50 in assay [2] was above 30 µM.
In the case of `O=C(O)[C@H]1C[C@@H](c2c(C3CCOCC3)n(-c3cc(F)cc(F)c3)c3ccc(O)cc32)C1` [Compound 113], the concentration for a half-maximal effect (EC50) in assay [1] is above 2 µM. Further, the IC50 in assay [2] was above 30 µM.
Taken in the same sequence, the figures for `O=C(O)[C@H]1C[C@H](c2c(C3CCOCC3)n(-c3ccc(F)c(Cl)c3)c3ccc(O)cc32)C1` [Compound 114] were 0.5 to 2 µM and above 30 µM.
Taken in the same sequence, the figures for `O=C(O)[C@H]1C[C@@H](c2c(C3CCOCC3)n(-c3ccc(F)c(Cl)c3)c3ccc(O)cc32)C1` [Compound 115] were above 2 µM and above 30 µM.
The matching figures for `O=C(O)[C@H]1C[C@H](c2c(C3CCOCC3)n(-c3ccc(F)c(F)c3)c3ccc(O)cc32)C1` [Compound 116]: above 2 µM and above 30 µM.
Turning to `O=C(O)[C@H]1C[C@@H](c2c(C3CCOCC3)n(-c3ccc(F)c(F)c3)c3ccc(O)cc32)C1` [Compound 117], the half-maximal effective concentration (EC50) in assay [1] is above 2 µM. In assay [2], the IC50 is above 30 µM.
In the case of `O=C(O)[C@]1(CF)C[C@@H](c2c(C3CCOCC3)n(-c3ccc(F)cc3)c3ccc(O)cc32)C1` [Compound 118], the EC50 in assay [1] was above 2 µM. Also, in assay [2], the concentration for half-maximal inhibition (IC50) was above 30 µM.
As to `O=C(O)[C@]1(CF)C[C@H](c2c(C3CCOCC3)n(-c3ccc(F)cc3)c3ccc(O)cc32)C1` [Compound 119], the EC50 in assay [1] is above 2 µM. The half-maximal inhibitory concentration (IC50) in assay [2] was above 30 µM.
